From US20060008483A1, “Dispersions of lipids for use as therapeutic and cosmetic agents and intracellular delivery vehicles” (Biotech Tools SA, priority 2002, published 2006)

Assays:
[1] = tested on: COS-7L cells (monkey fibroblasts); assay: Transfection of fibroblast cells with micellar dispersions of an amidinium salt, beta-galactosidase activity assay; format: cell-based; settings: pCMV-β plasmid, relative to Lipofectamine plus, 3 h + 20 h incubation
Experimental: Functional transfection efficiency was then measured by means of a beta-galactosidase (hereinafter referred as β-GAL) activity assay as follows: cells were lysed by adding 250 μl of a lysis buffer (0.1 M potassium phosphate, 0.5% Triton® X-100, 0.1% deoxycholate, pH 7.0). The cell lysate (50 μl) was mixed with 50 μl o-nitrophenyl-β-D-galactopyranoside (1.54 mg/ml in 0.1 potassium phosphate buffer, pH 7.0) and incubated at 37° C. for 30 minutes. The reaction was terminated by adding 160 μl of 1 M Na2CO3 and absorbance was determined using a spectrophotometer at 405 nm. β-GAL activity was calculated using a β-GAL standard curve.
Immediately before the transfection experiments, the amidinium salt of Example 9 was dissolved at a concentration of 0.1 mg/mL in water containing 5.0 g/l glucose and 0.1 mg/mL protamine sulfate. The solution was successively vortexed, heated during 15 minutes at 50° C. and then cooled at 20° C.
COS-7L cells (monkey fibroblasts) were grown in DMEM supplemented with 10% heat inactivated foetal bovine serum and penicellin 100 IU/mL-streptomycin 100 μg/mL, and were maintained at 37° C. in a humidified 5% incubator. […]
(§1) Transfection efficiency was measured in terms of beta-galactosidase activity using the beta-galactosidase activity assay described in Example 5 above. Cytotoxicity was determined as described in Example 2 above.

[2] = tested on: Chinese hamster Ovary cells or K562 human myeloid cells; settings: MLV, WO 95/17378; cited from earlier work
[3] = tested on: COS-7L cells (monkey fibroblasts); assay: Cytotoxicity in the micellar transfection experiment, determined as in Example 2; format: cell-based; settings: transfection conditions of Example 12
Experimental: The resulting titrated liposomes were cooled and then passed through a 0.2 μm filter (in order to eliminate large particles) and an average liposome size of 90 nm was measured. Filtered liposomes were then packed in sterile vials and stored at 4° C. […] Cytotoxicity was determined by means of a (3-(4,5-dimethylthiazol-2-yl)-2,5-diphenyl tetrazolium bromide assay, using a kit commercially available from Promega Benelux (Leyden, The Netherlands). COS-7 monkey fibroblast cell survival was expressed as the amount of dye reduction relative to that of the untreated control cells. The titrated liposomes are not toxic on COS-7 cells, as determined by the Cytotox 96 non-radioactive cytotoxy assay G 1780.
COS-7L cells (monkey fibroblasts) were grown in DMEM supplemented with 10% heat inactivated foetal bovine serum and penicellin 100 IU/mL-streptomycin 100 μg/mL, and were maintained at 37° C. in a humidified 5% incubator. One day prior to the transfection experiment, the cells were seeded in a 24-well culture dish and allowed to reach at least 80% confluency.
as §1

[4] = Critical micellar concentration by surface tension (langmuir balance); format: physicochemical; settings: 25° C.
Experimental: The amidinium salt of example 9 was dissolved at various concentrations in either water pH 7.0, PB (20 mM phosphate, pH 7.3) or in PBS (20 mM phosphate buffer, 150 mM NaCl, pH 7.3).
A langmuir balance (Krüss K12) was used to measure the surface tension of a solution of increasing amino-amidine concentration. […] The corresponding concentration was taken as CMC.
To determine the effect of protamine sulfate on the CMC protamine sulfate (PS) was added at a final concentration of 0.2 mg/mL to solutions of increasing concentration of the amidinium salt of Example 9.

CMC ([4]; in PB (20 mM phosphate, pH 7.3))	CMC ([4]; in PBS (20 mM phosphate buffer, 150 mM NaCl, pH 7.3))	CMC ([4]; in PBS + protamine sulfate 0.2 mg/mL)	CMC ([4]; in water pH 7.0, in M)	SMILES	β-gal relative activity [1]	transfection efficiencies [2]	Toxicity [3]
				CCCCCCCCCCCCCCN=C(CCNCCCCCCCCCCCCCC)NC(C)(C)C [DiC14iPr, N-terbutyl-N′-tetradecyl-3-tetradecyl-aminopropionamidine]	150%	60 to 68%	None
5.25e-05 M	6.75e-05 M	2e-05 M	5×10^−4	CCCCCCCCCCCCCCN=C(CCNCCCCCCCCCCCCCC)NC(C)(C)C [Example 9, N-terbutyl-N′-tetradecyl-3-tetradecyl-aminopropionamidine]			
